{"source": "ChEMBL document CHEMBL5465560", "about": "“Selectivity Literature for EUbOPEN Chemogenomic Library” (2024)", "key": {"[1]": {"biological_target": "Cyclin-dependent kinase 5 (Homo sapiens, UniProt Q00535)", "sequence (Q00535 whole entry, looked up)": "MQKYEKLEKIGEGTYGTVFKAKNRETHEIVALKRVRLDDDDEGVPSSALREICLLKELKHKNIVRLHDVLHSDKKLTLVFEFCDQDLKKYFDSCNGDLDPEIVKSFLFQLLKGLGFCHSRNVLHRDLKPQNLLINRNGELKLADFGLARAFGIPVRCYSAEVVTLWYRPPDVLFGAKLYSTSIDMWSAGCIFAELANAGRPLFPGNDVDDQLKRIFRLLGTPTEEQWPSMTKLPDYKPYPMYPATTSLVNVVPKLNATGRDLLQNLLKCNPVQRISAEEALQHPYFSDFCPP", "assay": "Selectivity interaction (KinomeScan (DiscoverX)) EUB0000229b CDK5", "details": "at 10 µM"}, "[2]": {"biological_target": "T1, Mitogen-activated protein kinase 12 (Homo sapiens) (UniProt P53778)", "T1 sequence (whole entry)": "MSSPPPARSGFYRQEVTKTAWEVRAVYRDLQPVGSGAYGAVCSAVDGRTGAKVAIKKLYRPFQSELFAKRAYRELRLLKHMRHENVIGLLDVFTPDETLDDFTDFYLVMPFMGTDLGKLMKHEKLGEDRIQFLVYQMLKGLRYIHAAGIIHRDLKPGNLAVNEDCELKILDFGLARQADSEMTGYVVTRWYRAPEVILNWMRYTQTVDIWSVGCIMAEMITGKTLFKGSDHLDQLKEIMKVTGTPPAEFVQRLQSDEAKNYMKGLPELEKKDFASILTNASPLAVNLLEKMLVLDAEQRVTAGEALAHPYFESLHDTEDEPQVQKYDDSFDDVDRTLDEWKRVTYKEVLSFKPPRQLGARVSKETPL", "assay": "Selectivity interaction (KinomeScan (DiscoverX)) EUB0000045b MAPK12"}, "[3]": {"biological_target": "T2, Dual specificity mitogen-activated protein kinase kinase 3 (Homo sapiens) (UniProt P46734)", "T2 sequence (whole entry)": "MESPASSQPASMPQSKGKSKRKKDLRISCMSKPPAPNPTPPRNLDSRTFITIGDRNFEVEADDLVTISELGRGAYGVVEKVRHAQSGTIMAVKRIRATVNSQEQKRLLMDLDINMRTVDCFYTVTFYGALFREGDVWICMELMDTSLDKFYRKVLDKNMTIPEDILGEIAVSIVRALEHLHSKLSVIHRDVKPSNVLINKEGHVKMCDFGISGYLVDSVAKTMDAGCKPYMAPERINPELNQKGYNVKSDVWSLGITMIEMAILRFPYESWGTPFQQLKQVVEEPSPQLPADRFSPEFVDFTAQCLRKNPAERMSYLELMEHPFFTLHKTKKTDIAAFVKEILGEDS", "assay": "Selectivity interaction (KinomeScan (DiscoverX)) EUB0001079a MAP2K3", "details": "at 1 µM"}, "[4]": {"biological_target": "Protein arginine N-methyltransferase 6 (Homo sapiens, UniProt Q96LA8)", "sequence (Q96LA8 whole entry, looked up)": "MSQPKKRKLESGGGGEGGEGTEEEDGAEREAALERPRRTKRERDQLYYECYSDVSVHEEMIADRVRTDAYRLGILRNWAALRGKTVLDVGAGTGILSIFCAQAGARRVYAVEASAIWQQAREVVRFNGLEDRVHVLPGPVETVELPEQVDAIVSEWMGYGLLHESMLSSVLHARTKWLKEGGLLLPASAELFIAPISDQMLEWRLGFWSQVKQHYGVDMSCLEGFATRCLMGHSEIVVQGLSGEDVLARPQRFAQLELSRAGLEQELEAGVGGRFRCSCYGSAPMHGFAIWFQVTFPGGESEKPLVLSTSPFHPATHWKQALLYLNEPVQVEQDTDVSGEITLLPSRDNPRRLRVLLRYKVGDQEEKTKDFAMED", "assay": "Selectivity interaction (Methyltransferase screen (radiometric assays, panel of 8 PRMTs, 21 protein lysine methyltransferases, 3 DNA methyltransferases, and one RNA methyltransferase)) EUB0000272b PRMT6"}, "[5]": {"biological_target": "T3, Serine/threonine-protein kinase Nek3 (Homo sapiens) (UniProt P51956)", "T3 sequence (whole entry)": "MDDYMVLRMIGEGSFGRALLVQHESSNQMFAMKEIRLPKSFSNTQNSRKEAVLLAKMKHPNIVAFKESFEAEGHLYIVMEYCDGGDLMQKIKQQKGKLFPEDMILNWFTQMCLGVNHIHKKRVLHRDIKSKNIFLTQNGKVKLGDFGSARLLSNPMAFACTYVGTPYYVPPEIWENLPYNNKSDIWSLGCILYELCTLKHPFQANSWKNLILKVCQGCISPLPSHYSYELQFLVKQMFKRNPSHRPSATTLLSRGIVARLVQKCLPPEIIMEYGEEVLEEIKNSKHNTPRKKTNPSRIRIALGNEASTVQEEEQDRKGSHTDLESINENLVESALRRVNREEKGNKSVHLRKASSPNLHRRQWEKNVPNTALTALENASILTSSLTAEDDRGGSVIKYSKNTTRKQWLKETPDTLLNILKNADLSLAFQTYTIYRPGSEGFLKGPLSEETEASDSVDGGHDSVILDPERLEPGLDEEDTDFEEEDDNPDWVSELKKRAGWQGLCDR", "details": "at 10 µM"}, "[6]": {"biological_target": "G protein-coupled receptor kinase 6 (Homo sapiens) (UniProt P43250)", "assay": "Selectivity interaction (ActivX KiNativ screen (ex vivo kinase selectivity in human PBMCs)) EUB0001619a GRK6", "format": "cell-based", "details": "PBMC, at 1 µM"}, "[7]": {"biological_target": "T4, Serine/threonine-protein kinase Sgk3 (Homo sapiens) (UniProt Q96BR1)", "T4 sequence (whole entry)": "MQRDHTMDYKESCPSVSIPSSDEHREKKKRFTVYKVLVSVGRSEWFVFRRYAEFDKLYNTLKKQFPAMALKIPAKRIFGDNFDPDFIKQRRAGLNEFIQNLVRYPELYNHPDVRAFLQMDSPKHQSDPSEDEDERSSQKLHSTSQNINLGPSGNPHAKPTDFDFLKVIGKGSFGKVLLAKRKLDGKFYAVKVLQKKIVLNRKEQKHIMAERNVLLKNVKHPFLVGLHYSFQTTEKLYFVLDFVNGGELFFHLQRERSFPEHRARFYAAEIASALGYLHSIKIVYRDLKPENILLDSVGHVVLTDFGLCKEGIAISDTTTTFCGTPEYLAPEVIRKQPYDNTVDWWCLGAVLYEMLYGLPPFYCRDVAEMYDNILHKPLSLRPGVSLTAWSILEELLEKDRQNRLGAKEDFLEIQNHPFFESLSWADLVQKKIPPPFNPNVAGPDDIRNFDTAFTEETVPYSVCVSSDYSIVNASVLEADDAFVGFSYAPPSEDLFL", "assay": "Selectivity interaction (KinomeScan (DiscoverX)) EUB0001619a SGK3", "details": "at 1 µM"}, "[8]": {"biological_target": "Casein kinase I isoform alpha (Homo sapiens, UniProt P48729)", "sequence (P48729 2-337 limits assumed)": "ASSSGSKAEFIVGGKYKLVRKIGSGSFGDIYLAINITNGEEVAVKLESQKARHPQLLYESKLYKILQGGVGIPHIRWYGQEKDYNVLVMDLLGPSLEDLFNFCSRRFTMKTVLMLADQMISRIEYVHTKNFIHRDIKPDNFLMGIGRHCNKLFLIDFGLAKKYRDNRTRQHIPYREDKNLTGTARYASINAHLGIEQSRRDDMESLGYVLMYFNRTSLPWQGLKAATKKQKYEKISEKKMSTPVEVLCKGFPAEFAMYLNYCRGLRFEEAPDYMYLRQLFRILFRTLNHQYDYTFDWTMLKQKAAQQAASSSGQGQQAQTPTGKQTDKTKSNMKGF", "assay": "Selectivity interaction (ActivX KiNativ screen (ex vivo kinase selectivity in human PBMCs)) EUB0001619a CSNK1A1", "format": "cell-based", "details": "PBMC, at 1 µM"}, "[9]": {"biological_target": "Protein arginine N-methyltransferase 1 (Homo sapiens, UniProt Q99873)", "assay": "Selectivity interaction (Scintillation proximity assays) EUB0000255b PRMT1"}, "[10]": {"biological_target": "Serine/threonine-protein kinase tousled-like 2 (Homo sapiens) (UniProt Q86UE8)", "assay": "Selectivity interaction (KinomeScan (DiscoverX)) EUB0000607a TLK2", "details": "at 10 µM"}, "[11]": {"biological_target": "DNA-dependent protein kinase catalytic subunit (Homo sapiens) (UniProt P78527)", "sequence (P78527 whole entry)": "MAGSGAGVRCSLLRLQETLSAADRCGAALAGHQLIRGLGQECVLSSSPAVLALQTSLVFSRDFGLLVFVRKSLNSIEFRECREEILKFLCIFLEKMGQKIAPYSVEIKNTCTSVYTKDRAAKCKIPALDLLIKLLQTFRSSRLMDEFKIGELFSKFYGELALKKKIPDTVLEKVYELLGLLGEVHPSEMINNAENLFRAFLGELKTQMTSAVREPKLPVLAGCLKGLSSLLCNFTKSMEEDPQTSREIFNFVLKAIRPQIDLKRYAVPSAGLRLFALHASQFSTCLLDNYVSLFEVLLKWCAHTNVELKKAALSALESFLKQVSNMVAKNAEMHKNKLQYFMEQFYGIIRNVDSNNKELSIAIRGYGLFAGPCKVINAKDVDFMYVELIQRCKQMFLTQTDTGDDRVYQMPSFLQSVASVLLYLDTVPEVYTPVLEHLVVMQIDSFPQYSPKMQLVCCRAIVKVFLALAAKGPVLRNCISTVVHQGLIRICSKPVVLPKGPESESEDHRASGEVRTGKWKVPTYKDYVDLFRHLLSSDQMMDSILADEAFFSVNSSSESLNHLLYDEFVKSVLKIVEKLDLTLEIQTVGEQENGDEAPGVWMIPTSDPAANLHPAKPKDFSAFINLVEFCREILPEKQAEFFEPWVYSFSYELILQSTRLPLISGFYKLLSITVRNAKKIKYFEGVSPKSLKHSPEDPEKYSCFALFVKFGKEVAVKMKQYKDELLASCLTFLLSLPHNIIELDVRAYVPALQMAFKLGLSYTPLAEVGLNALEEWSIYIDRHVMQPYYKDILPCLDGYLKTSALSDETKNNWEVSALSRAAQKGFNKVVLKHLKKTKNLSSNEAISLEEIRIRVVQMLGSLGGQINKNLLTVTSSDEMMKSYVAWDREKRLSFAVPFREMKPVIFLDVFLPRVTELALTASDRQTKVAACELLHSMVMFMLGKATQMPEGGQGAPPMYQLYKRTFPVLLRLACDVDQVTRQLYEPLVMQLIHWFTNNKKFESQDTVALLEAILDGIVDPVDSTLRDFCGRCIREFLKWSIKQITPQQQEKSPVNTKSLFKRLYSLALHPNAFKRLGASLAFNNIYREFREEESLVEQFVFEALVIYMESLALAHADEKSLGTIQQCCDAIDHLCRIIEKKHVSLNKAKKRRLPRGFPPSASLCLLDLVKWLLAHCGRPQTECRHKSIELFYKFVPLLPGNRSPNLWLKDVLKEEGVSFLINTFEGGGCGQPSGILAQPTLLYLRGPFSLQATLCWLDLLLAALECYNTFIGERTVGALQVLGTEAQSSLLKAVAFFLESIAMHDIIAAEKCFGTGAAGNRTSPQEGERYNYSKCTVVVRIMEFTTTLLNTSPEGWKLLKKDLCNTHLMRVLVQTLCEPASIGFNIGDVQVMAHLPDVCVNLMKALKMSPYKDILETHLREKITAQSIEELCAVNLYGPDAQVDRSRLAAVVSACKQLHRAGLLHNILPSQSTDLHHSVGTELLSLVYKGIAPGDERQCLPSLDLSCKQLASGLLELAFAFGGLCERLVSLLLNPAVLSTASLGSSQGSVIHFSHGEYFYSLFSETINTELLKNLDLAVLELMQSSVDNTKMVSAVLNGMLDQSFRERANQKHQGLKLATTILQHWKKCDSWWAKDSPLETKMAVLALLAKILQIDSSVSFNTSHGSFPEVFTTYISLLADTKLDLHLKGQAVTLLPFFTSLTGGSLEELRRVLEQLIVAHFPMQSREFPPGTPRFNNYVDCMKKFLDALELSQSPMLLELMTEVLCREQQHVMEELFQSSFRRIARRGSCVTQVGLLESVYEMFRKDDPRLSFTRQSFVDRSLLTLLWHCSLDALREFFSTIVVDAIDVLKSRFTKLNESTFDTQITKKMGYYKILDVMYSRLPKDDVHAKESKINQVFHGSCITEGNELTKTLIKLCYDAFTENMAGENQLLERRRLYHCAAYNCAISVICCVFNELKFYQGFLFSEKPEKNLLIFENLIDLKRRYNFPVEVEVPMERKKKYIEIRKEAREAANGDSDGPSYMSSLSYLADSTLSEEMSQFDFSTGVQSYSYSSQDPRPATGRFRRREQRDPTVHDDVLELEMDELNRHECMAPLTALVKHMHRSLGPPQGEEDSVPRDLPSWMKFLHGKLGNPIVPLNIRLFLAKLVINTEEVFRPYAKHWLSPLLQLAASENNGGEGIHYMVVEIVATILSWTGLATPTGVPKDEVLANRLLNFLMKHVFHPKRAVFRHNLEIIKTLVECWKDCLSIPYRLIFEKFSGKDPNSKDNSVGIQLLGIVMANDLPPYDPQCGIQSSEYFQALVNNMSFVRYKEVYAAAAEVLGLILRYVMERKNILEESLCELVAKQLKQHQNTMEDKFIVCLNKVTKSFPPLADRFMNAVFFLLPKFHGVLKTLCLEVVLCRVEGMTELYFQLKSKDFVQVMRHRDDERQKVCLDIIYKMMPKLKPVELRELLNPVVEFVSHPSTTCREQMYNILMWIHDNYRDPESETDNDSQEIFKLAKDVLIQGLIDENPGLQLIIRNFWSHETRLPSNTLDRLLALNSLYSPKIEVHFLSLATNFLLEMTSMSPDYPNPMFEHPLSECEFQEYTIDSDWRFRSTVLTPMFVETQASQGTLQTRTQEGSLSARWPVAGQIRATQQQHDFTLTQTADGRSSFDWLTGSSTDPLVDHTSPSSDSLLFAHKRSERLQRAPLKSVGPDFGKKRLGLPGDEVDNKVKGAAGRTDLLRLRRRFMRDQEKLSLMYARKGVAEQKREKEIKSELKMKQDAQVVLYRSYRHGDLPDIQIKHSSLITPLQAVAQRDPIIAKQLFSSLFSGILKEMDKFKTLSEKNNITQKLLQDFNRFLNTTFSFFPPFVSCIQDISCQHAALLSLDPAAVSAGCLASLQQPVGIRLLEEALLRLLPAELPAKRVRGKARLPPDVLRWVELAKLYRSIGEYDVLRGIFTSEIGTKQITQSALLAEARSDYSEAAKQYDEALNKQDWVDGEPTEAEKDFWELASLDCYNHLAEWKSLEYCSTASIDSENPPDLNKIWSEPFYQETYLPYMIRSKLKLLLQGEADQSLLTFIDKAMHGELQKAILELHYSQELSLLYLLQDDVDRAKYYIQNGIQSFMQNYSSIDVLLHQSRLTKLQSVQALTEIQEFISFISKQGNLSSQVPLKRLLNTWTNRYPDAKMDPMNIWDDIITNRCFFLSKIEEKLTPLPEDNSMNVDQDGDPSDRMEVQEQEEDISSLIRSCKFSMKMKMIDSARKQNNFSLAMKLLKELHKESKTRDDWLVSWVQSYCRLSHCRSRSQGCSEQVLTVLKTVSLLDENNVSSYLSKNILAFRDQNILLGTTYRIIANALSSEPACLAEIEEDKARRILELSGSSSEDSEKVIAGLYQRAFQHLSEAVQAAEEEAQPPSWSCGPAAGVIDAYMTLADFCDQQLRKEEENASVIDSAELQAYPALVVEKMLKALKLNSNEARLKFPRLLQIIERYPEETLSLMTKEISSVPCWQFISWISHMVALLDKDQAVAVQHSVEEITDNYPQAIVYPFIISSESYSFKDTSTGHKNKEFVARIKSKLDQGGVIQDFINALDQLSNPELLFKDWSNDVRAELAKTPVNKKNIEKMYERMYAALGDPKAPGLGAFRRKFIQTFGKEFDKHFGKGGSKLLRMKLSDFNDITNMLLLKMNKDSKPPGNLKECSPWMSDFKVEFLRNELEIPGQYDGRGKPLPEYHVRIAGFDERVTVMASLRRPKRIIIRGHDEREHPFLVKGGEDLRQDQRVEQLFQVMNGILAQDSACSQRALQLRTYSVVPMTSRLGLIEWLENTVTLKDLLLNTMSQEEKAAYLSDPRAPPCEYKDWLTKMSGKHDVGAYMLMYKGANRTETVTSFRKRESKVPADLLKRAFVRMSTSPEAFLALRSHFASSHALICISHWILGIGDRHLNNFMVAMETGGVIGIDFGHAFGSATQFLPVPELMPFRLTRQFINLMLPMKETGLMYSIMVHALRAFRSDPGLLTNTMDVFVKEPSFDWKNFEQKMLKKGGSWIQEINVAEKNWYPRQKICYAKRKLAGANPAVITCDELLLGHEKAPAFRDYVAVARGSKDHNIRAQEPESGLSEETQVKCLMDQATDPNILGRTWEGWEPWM", "assay": "Selectivity interaction (ActivX KiNativ screen (kinase selectivity in THP-1 cell lysates)) EUB0000639a PRKDC", "format": "subcellular", "details": "lysate"}, "[12]": {"biological_target": "Cyclin-dependent kinase 2 (Homo sapiens, UniProt P24941)", "assay": "Selectivity interaction (Ambit KINOMEscan and KiNATiv profiling in Jurkat cells) EUB0000090b CDK2", "format": "cell-based", "details": "at 1 µM"}}, "data": [{"compound": "COc1cc(N(C)c2ccnc3ccc(C(F)(F)F)cc23)cc(OC)c1OC", "values": [{"measurement": "% binding", "setting": "[1]", "result": 97, "unit": "%"}]}, {"compound": "C=CC(=O)Nc1cc(-n2c(=O)ccc3cnc4ccc(-c5ccc(NS(C)(=O)=O)cc5)cc4c32)ccc1C", "values": [{"measurement": "% of control", "setting": "[2]; at 1 µM", "result": 72, "unit": "%"}, {"measurement": "% of control", "setting": "[2]; at 10 µM", "result": 79, "unit": "%"}]}, {"compound": "Nc1cnc(N2CCc3cc(S(=O)(=O)Nc4c(F)cc(Cl)cc4F)cc(N4CCCC4=O)c32)nc1", "note": "[TP-020n]", "values": [{"measurement": "% of control", "setting": "[3]", "result": 100, "unit": "%"}]}, {"compound": "Cc1cc(C)cc([C@H]2c3cc(C)ccc3NC(=O)CN2C(=O)c2ccc(Br)s2)c1", "values": [{"measurement": "% of activity", "setting": "[4]; at 1 µM", "result": 92.3, "unit": "%"}, {"measurement": "% of activity", "setting": "[4]; at 10 µM", "result": 92.7, "unit": "%"}]}, {"compound": "Cc1cc([C@@H](C)Nc2ccccc2C(=O)O)c2nc(N3CCOCC3)cc(=O)n2c1", "note": "[AZD-6482]", "values": [{"measurement": "% of control", "setting": "[5]", "result": 100, "unit": "%"}]}, {"compound": "N#Cc1cccc(-c2c[nH]c3ncnc(N4CCOCC4)c23)c1", "values": [{"measurement": "% of inhibition", "setting": "[6]", "result": 11, "unit": "%"}, {"measurement": "% of control", "setting": "[7]", "result": 100, "unit": "%"}, {"measurement": "% of inhibition", "setting": "[8]", "result": -7, "unit": "%"}]}, {"compound": "COCCN1CCC(c2cc(CN(C)C(=O)c3cccc(Oc4ccccc4)c3)ccn2)CC1", "values": [{"measurement": "IC50", "setting": "[9]", "result": "> 10", "unit": "µM"}]}, {"compound": "CNC(=O)Nc1ccc(-c2nc(N3CC4CCC(C3)O4)c3cnn(C4CCC5(CC4)OCCO5)c3n2)cc1", "values": [{"measurement": "% of control", "setting": "[10]", "result": 100, "unit": "%"}]}, {"compound": "CC[C@@H]1[C@H](F)C(=O)N[C@@H]1COc1nccc2cc(C(N)=O)c(OC)cc12", "note": "[ZIMLOVISERTIB]", "values": [{"measurement": "% of inhibition", "setting": "[11]; at 0.01 µM", "result": -17.9, "unit": "%"}, {"measurement": "% of inhibition", "setting": "[11]; at 0.04 µM", "result": -5.4, "unit": "%"}, {"measurement": "% of inhibition", "setting": "[11]; at 0.2 µM", "result": 5, "unit": "%"}, {"measurement": "% of inhibition", "setting": "[11]; at 1 µM", "result": 12.5, "unit": "%"}, {"measurement": "% of inhibition", "setting": "[11]; at 5 µM", "result": -1.4, "unit": "%"}]}, {"compound": "CN(C)C/C=C/C(=O)Nc1ccc(C(=O)N2CCCC(Nc3ncc(Cl)c(-c4c[nH]c5ccccc45)n3)C2)cc1", "note": "(stereo not drawn)", "values": [{"measurement": "% of control", "setting": "[12]", "result": 72, "unit": "%"}]}]}
